In patent publication US12036190B2, “Methods and compositions for the treatment of cytoplasmic glycogen storage disorders” (Duke University, priority 2015, dated 2024):

Columns and labels:
[1] = tested on: G6pc siRNA knockdown AML-12 cells; conditions: Oil Red O, duplicate
Source text: In brief, a wide array of drugs was selected, including those that modulate autophagy via the […] pathway, those that do so through AMPK modulation to act through mTORC1, and those using yet-undetermined pathways. Analysis of additional literature led to the selection of three concentrations of each compound to be tested in cell culture using the G6pc siRNA knockdown AML-12 mouse hepatocyte cell line model of GSD Ia as an initial screen for the drugs.
Drug concentrations were chosen based on similarity to published concentrations in either cell culture models resulting in target effects or autophagy, or in vivo extracellular fluid concentrations following animal treatments. The latter case is noted with the fluid type. Concentrations used in our in vitro AML-12 cell culture treatments are listed as the low, medium, and high concentrations that were screened.
The first test using AML-12 cells was the Oil Red 0 stain to examine the presence of lipid vacuoles in cells given the treatments.
G6pc siRNA knockdown AML-12 cells were given three different doses of each drug treatment. After 72 hours of growth, the media was changed to ketogenic media and appropriate quantities of each drug were added. This was performed in duplicate. Oil Red 0 staining was then performed and bright field images acquired at 10× magnification.
Drug treatments at three doses each were performed on G6pc siRNA knockdown AML-12 cells. Following oil red 0 staining the whole plates were evaluated visually for reductions in lipid accumulation. Treatments were performed in duplicate. —/0/+/++/+++ indicates the degree of improvement, or lipid reduction, caused by the treatment, with + indicating positive benefits.

[2] = tested on: autophagy; conditions: Table 4; drugs known to enhance autophagy; cited from earlier work
[3] = in vivo extracellular fluid concentration; cited from earlier work
[4] = tested on: G6pc knockdown AML-12 cells; experiment: LC3 Western blot of drug-treated G6pc knockdown AML-12 cells; format: cell-based, mouse; conditions: 24 hours; conditions with optimal effects in the Oil Red O screen
Description: FIG. 27 illustrates LC3 Western blot of drug-treated G6pc knockdown AML-12 cells. Western blotting was performed on AML-12 cells incubated for 24 hours with the described drug conditions. LC3 was quantified and normalized against each condition's β-actin protein quantification.
In addition to Oil Red O staining, cells were analyzed via Western blots for restored LC3 expression for each drug, under the conditions that had optimal effects in the Oil Red O screen (FIG. 27). Since the Western antibody previously used successfully for rapamycin treatment LC3 blots had been discontinued by the manufacturer, we tested two alternative antibodies and chose the one from Cell Signaling Technologies because it gave the strongest signal-to-noise ratio under our experimental conditions.
Western blotting was performed on AML-12 cells incubated for 24 hours with the described drug conditions. LC3 was quantified and normalized against each condition's β-actin protein quantification.

SMILES: NC(=O)N1c2ccccc2C=Cc2ccccc21 [Carbamazepine]
- Lipid Reduction Scoring, High dose ([1]; high concentration of Table 6): 0
- Lipid Reduction Scoring, Low dose ([1]; low concentration of Table 6): +++
- Lipid Reduction Scoring, Medium dose ([1]; medium concentration of Table 6): +
- Effect [2]: Activated autophagy, reduced hepatosteatosis
- Published Concentration, cerebrospinal fluid [3]: 0.7 to 1.5 µg/mL
- LC3 normalized against β-actin (Western blot) [4]: increase in LC3 autophagic marker
